From ChEMBL document CHEMBL3885881, “DrugMatrix”

Species on record: Rattus norvegicus
Test: DrugMatrix - Regimen: Daily Repeat
Type: toxicity, organism-based, Sprague-Dawley
Parameters: regimen Daily Repeat, gender Male, age 6-8 weeks
Details: in vivo, po, route oral GAVAGE, […]; for ABSOLUTE BASOPHIL / ABSOLUTE EOSINOPHIL / ABSOLUTE LYMPHOCYTE / ABSOLUTE MONOCYTE / ABSOLUTE SEGMENTED NEUTROPHIL / BASOPHIL / EOSINOPHIL / ERYTHROCYTE COUNT / HEMATOCRIT / HEMOGLOBIN / LEUKOCYTE COUNT / LYMPHOCYTE / MEAN CORPUSCULAR HEMOGLOBIN / MEAN CORPUSCULAR HEMOGLOBIN CONCENTRATION / MEAN CORPUSCULAR VOLUME / MONOCYTE / NEUTROPHIL / NUCLEATED RED BLOOD CELLS / PLATELET COUNT: tissue Blood; for ALANINE AMINOTRANSFERASE / ALBUMIN / ALKALINE PHOSPHATASE / ASPARTATE AMINOTRANSFERASE / BLOOD UREA NITROGEN / CARBON DIOXIDE / CHLORIDE / CHOLESTEROL / CREATINE PHOSPHOKINASE / CREATININE / GLUCOSE / LACTATE DEHYDROGENASE / LIPASE / PHOSPHORUS / POTASSIUM / SODIUM / TOTAL BILIRUBIN / TOTAL PROTEIN / URIC ACID: tissue Plasma
[1] = 0 mg/kg, 72 h, dose level Control, time 3 day
[2] = 0 mg/kg, 120 h, dose level Control, time 5 day
[3] = 12 mg/kg, 72 h, dose level Low, time 3 day

`COc1ncnc(NS(=O)(=O)c2ccc(N)cc2)c1OC` [SULFADOXINE] was tested, and the “ABSOLUTE BASOPHIL” value [1] was 0 CELLS/uL, the “ABSOLUTE EOSINOPHIL” value [1] was 41.83 CELLS/uL and the “ABSOLUTE LYMPHOCYTE” value [1] was 8545.5 CELLS/uL. For the same molecule, the “ABSOLUTE MONOCYTE” value [1] was 240 CELLS/uL, the “ABSOLUTE SEGMENTED NEUTROPHIL” value [1] was 906 CELLS/uL and the BASOPHIL [1] was 0%. The EOSINOPHIL [1] was 0.33%, the “ERYTHROCYTE COUNT” value [1] was 5.6 x10E6/uL and the HEMATOCRIT [1] was 35.4%. For the same molecule, the HEMOGLOBIN [1] was 13.42 G/DL, the “LEUKOCYTE COUNT” value [1] was 9.73 x10E3/uL and the LYMPHOCYTE [1] was 87.83%. For the same molecule, the “MEAN CORPUSCULAR HEMOGLOBIN” value [1] was 23.98 pg, the “MEAN CORPUSCULAR HEMOGLOBIN CONCENTRATION” value [1] was 37.92 G/DL and the “MEAN CORPUSCULAR VOLUME” value [1] was 63.3 fL. The MONOCYTE [1] was 2.5%, the NEUTROPHIL [1] was 9.33% and the “NUCLEATED RED BLOOD CELLS” value [1] was 0 /100WBC. The “PLATELET COUNT” value [1] was 1032 x10E3/uL, the “ALANINE AMINOTRANSFERASE” value [1] was 72.83 u/L and the ALBUMIN [1] was 4 G/DL. For the same molecule, the “ALKALINE PHOSPHATASE” value [1] was 322.83 u/L, the “ASPARTATE AMINOTRANSFERASE” value [1] was 102.67 u/L and the “BLOOD UREA NITROGEN” value [1] was 12 mg/dL. The “CARBON DIOXIDE” value [1] was 34.33 mmol/L, the CHLORIDE [1] was 97.67 MEQ/L and the CHOLESTEROL [1] was 82.5 mg/dL. For the same molecule, the “CREATINE PHOSPHOKINASE” value [1] was 410.33 u/L, the CREATININE [1] was 0.18 mg/dL and the GLUCOSE [1] was 164.5 mg/dL. The “LACTATE DEHYDROGENASE” value [1] was 119.5 u/L, the LIPASE [1] was 11.83 u/L and the PHOSPHORUS [1] was 9.52 mg/dL. The POTASSIUM [1] was 5.56 MEQ/L, the SODIUM [1] was 142.48 MEQ/L and the “TOTAL BILIRUBIN” value [1] was 0.18 mg/dL. The “TOTAL PROTEIN” value [1] was 5.77 G/DL, the “URIC ACID” value [1] was 0.48 mg/dL and the “ABSOLUTE BASOPHIL” value [2] was 0 CELLS/uL. For the same molecule, the “ABSOLUTE EOSINOPHIL” value [2] was 0 CELLS/uL, the “ABSOLUTE LYMPHOCYTE” value [2] was 9065 CELLS/uL and the “ABSOLUTE MONOCYTE” value [2] was 341.33 CELLS/uL. For the same molecule, the “ABSOLUTE SEGMENTED NEUTROPHIL” value [2] was 527 CELLS/uL, the BASOPHIL [2] was 0% and the EOSINOPHIL [2] was 0%. For the same molecule, the “ERYTHROCYTE COUNT” value [2] was 5.25 x10E6/uL, the HEMATOCRIT [2] was 34.08% and the HEMOGLOBIN [2] was 13.5 G/DL. The “LEUKOCYTE COUNT” value [2] was 9.93 x10E3/uL, the LYMPHOCYTE [2] was 91.17% and the “MEAN CORPUSCULAR HEMOGLOBIN” value [2] was 25.7 pg. The “MEAN CORPUSCULAR HEMOGLOBIN CONCENTRATION” value [2] was 39.62 G/DL, the “MEAN CORPUSCULAR VOLUME” value [2] was 64.93 fL and the MONOCYTE [2] was 3.33%. For the same molecule, the NEUTROPHIL [2] was 5.5%, the “NUCLEATED RED BLOOD CELLS” value [2] was 0 /100WBC and the “PLATELET COUNT” value [2] was 1077.5 x10E3/uL. The “ALANINE AMINOTRANSFERASE” value [2] was 57.83 u/L, the ALBUMIN [2] was 4.07 G/DL and the “ALKALINE PHOSPHATASE” value [2] was 319.17 u/L. The “ASPARTATE AMINOTRANSFERASE” value [2] was 83.33 u/L, the “BLOOD UREA NITROGEN” value [2] was 13.67 mg/dL and the “CARBON DIOXIDE” value [2] was 30.83 mmol/L. The CHLORIDE [2] was 98.33 MEQ/L, the CHOLESTEROL [2] was 64.83 mg/dL and the “CREATINE PHOSPHOKINASE” value [2] was 263.67 u/L. For the same molecule, the CREATININE [2] was 0.2 mg/dL, the GLUCOSE [2] was 182.83 mg/dL and the “LACTATE DEHYDROGENASE” value [2] was 124 u/L. For the same molecule, the LIPASE [2] was 10.5 u/L, the PHOSPHORUS [2] was 10 mg/dL and the POTASSIUM [2] was 5.78 MEQ/L. For the same molecule, the SODIUM [2] was 142.48 MEQ/L, the “TOTAL BILIRUBIN” value [2] was 0.2 mg/dL and the “TOTAL PROTEIN” value [2] was 6 G/DL. The “URIC ACID” value [2] was 0.7 mg/dL, the “ABSOLUTE BASOPHIL” value [3] was 0 CELLS/uL and the “ABSOLUTE EOSINOPHIL” value [3] was 0 CELLS/uL. For the same molecule, the “ABSOLUTE LYMPHOCYTE” value [3] was 9669.67 CELLS/uL, the “ABSOLUTE MONOCYTE” value [3] was 359.33 CELLS/uL and the “ABSOLUTE SEGMENTED NEUTROPHIL” value [3] was 937.67 CELLS/uL. The BASOPHIL [3] was 0%, the EOSINOPHIL [3] was 0% and the “ERYTHROCYTE COUNT” value [3] was 5.36 x10E6/uL. For the same molecule, the HEMATOCRIT [3] was 34.67%, the HEMOGLOBIN [3] was 13.5 G/DL and the “LEUKOCYTE COUNT” value [3] was 10.97 x10E3/uL. For the same molecule, the LYMPHOCYTE [3] was 88.33%, the “MEAN CORPUSCULAR HEMOGLOBIN” value [3] was 25.23 pg and the “MEAN CORPUSCULAR HEMOGLOBIN CONCENTRATION” value [3] was 38.97 G/DL. For the same molecule, the “MEAN CORPUSCULAR VOLUME” value [3] was 64.87 fL, the MONOCYTE [3] was 2.67% and the NEUTROPHIL [3] was 9%. For the same molecule, the “NUCLEATED RED BLOOD CELLS” value [3] was 0 /100WBC, the “PLATELET COUNT” value [3] was 1062.67 x10E3/uL and the “ALANINE AMINOTRANSFERASE” value [3] was 67.67 u/L. The ALBUMIN [3] was 4 G/DL, the “ALKALINE PHOSPHATASE” value [3] was 358.33 u/L and the “ASPARTATE AMINOTRANSFERASE” value [3] was 91.33 u/L. For the same molecule, the “BLOOD UREA NITROGEN” value [3] was 12.67 mg/dL, the “CARBON DIOXIDE” value [3] was 32.33 mmol/L and the CHLORIDE [3] was 98.33 MEQ/L. For the same molecule, the CHOLESTEROL [3] was 76.33 mg/dL, the “CREATINE PHOSPHOKINASE” value [3] was 340.67 u/L and the CREATININE [3] was 0.29 mg/dL. The GLUCOSE [3] was 154.67 mg/dL, the “LACTATE DEHYDROGENASE” value [3] was 166 u/L and the LIPASE [3] was 10.67 u/L. It also gave a PHOSPHORUS [3] of 10.17 mg/dL, a POTASSIUM [3] of 5.55 MEQ/L and an SODIUM [3] of 143.6 MEQ/L. For the same molecule, the “TOTAL BILIRUBIN” value [3] was 0.23 mg/dL, the “TOTAL PROTEIN” value [3] was 5.77 G/DL and the “URIC ACID” value [3] was 0.33 mg/dL.
